The assay has as its target T1, acetylcholinesterase from electric eel source (AChE, E.C. 3.1.1.7, Type V-S) (Electrophorus electricus, UniProt O42275).
T1 construct: Acetylcholinesterase enzyme extracted from electric eel was utilized; purchased Sigma-Aldrich (Steinheim, Germany) Type V-S; host or cells: electric eel tissue (extracted)
Put plainly: biochemical. As to conditions: Ellman test, preincubation 15 min at 25 °C, pH 8.0, triplicate, IC50 ± SD, read-out: IC50 (enzymatic assay, acetylcholinesterase inhibition). The method, then: Lyophilized powder of acetylcholinesterase from electric eel source (AChE, E.C. 3.1.1.7, Type V-S, 1000 unit) was purchased from Sigma-Aldrich (Steinheim, Germany). 5,5′-Dithiobis-(2-nitrobenzoic acid, DTNB), potassium dihydrogen phosphate (KH2PO4), dipotassium hydrogen phosphate (K2HPO4), potassium hydroxide (KOH), sodium hydrogen carbonate (NaHCO3), and acetylthiocholine iodide were purchased from Fluka (Buchs, Switzerland).
According to the literature, the Ellman test was performed for assessment of the anticholinesterase activity of intended compounds in-vitro. […] After rapid and immediate mixing the change of absorption was measured at 412 nm.
The blank reading contained 3 mL buffer, 200 µL water, 100 µL DTNB and 20 µL substrate. The reaction rates were calculated, and the percent inhibition of test compounds was determined. Each concentration was analyzed in triplicate, and IC50 ± SD values were determined graphically from inhibition curves (log inhibitor concentration vs. percent of inhibition) ([22], [23]).
Acetylcholinesterase enzyme extracted from electric eel was utilized for assessment of the potency of intended compounds.
On the technique in general: Ellman's reagent forms a yellow product with free thiols.

The structures appear in SMILES notation. Where only a bound is given, the exact number is not on record here.

T1 sequence (O42275 24-633): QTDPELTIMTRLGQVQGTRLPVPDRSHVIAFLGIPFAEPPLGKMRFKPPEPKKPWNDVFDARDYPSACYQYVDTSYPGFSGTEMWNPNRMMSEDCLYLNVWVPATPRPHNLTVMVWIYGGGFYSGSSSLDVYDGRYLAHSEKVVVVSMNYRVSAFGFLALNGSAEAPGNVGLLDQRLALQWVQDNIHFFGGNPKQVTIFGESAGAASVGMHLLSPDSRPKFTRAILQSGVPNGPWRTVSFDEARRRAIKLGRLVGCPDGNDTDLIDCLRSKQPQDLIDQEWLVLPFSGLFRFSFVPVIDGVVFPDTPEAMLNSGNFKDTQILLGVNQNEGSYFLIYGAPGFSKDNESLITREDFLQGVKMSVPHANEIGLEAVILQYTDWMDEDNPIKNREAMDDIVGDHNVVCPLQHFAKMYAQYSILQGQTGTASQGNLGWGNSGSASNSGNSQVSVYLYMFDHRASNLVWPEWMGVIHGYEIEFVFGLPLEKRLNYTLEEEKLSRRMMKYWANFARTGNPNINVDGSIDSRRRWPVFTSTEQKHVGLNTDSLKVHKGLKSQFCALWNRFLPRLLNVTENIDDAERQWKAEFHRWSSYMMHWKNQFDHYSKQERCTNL

Broadly, the IC50 is the midpoint of a concentration-inhibition curve. Consider `O=C(Nc1ccc(Cl)cc1)c1ccc(N2C(=O)c3ccccc3C2=O)cc1` [Compound 4b, N-(4-Chlorophenyl)-4-(1,3-dioxoisoindolin-2-yl)benzamide], for which the IC50 is greater than 250 µM.

Regarding `COc1ccc(NC(=O)c2ccc(N3C(=O)c4ccccc4C3=O)cc2)cc1` [Compound 4f, 4-(1,3-Dioxoisoindolin-2-yl)-N-(4-methoxyphenyl)benzamide], the 50% inhibitory concentration (IC50) was greater than 250 µM.

In the case of `O=C(Nc1cccc(F)c1)c1ccc(N2C(=O)c3ccccc3C2=O)cc1` [Compound 4d, 4-(1,3-Dioxoisoindolin-2-yl)-N-(3-fluorophenyl)benzamide], the half-maximal inhibitory concentration (IC50) was greater than 250 µM.

`O=C(Nc1ccccc1[N+](=O)[O-])c1ccc(N2C(=O)c3ccccc3C2=O)cc1` [Compound 4g, 4-(1,3-Dioxoisoindolin-2-yl)-N-(2-nitrophenyl)benzamide]: the 50% inhibitory concentration (IC50) came to 1.1 ± 0.25 µM.

As for `O=C(Nc1ccccc1F)c1ccc(N2C(=O)c3ccccc3C2=O)cc1` [Compound 4c, 4-(1,3-Dioxoisoindolin-2-yl)-N-(2-fluorophenyl)benzamide], the 50% inhibitory concentration (IC50) was greater than 250 µM.

Consider `COc1cccc(NC(=O)c2ccc(N3C(=O)c4ccccc4C3=O)cc2)c1` [Compound 4e, 4-(1,3-Dioxoisoindolin-2-yl)-N-(3-methoxyphenyl)benzamide], for which the half-maximal inhibitory concentration (IC50) is greater than 250 µM.

`O=C(Nc1cccc(Cl)c1)c1ccc(N2C(=O)c3ccccc3C2=O)cc1` [Compound 4a, N-(3-Chlorophenyl)-4-(1,3-dioxoisoindolin-2-yl)benzamide]: the half-inhibitory concentration (IC50) was greater than 250 µM.

With `O=C(Nc1ccc([N+](=O)[O-])cc1)c1ccc(N2C(=O)c3ccccc3C2=O)cc1` [Compound 4h, 4-(1,3-Dioxoisoindolin-2-yl)-N-(4-nitrophenyl)benzamide], the IC50 was greater than 250 µM.
